Bridges are numbered along the chain shown (N, C = ends).

Assay [1] deals with interferon type I signaling. The assay is described as follows: ISRE response, HT1080 ISRE mCherry reporter cells stimulated with Poly I:C. Type of assay: cell-based. The following applies: pretreatment with 0.3 μM for 48 h, FIG. 1A, 1C. As to the method:
(§1) HT1080 cells transfected with mCherry reporter under an ISRE (Interferon-Sensitive Response Element) promoter and HCT116 with Luc reporter under ISRE promoter were used. Raw 264.7 (undifferentiated murine macrophages) cell line was also used. The cells were cultured in appropriate media: Dulbecco's Modified Eagle Medium (DMEM) (Cat #41965-039, Gibco) with 4.5 g/l glucose and L-glutamine augmented with 10% FBS (Gibco, Grand Island, NY), 100 U/ml penicillin and 100 μg/ml streptomycin in a humidified atmosphere at 37° C. with 5% CO2.
HT1080 ISRE mCherry cells were plated in 6-well plates at 2×10^4 cells/well. […] Following the 48 hour incubation, 25 μg/well of Polyinosinic:polycytidylic acid (Poly I:C)—a chemical compound structurally similar to double-stranded RNA and acting via Toll Like Receptor-3 molecular pathway activation, was added for an additional 16 h incubation. After this second incubation, cells were subjected to fluorescent imaging followed by washing with 1×PBX, trypsinization and resuspension with 300 μl of 1×PBS. 200 μl of cell suspension were further loaded into 96-well black clear bottom plates. Strength of mCherry fluorescence signal was detected by an ELISA reader with multiple reads per well at 574Ex/610Em.

Assay [2] has as its system interferon type I signaling. Description: ISRE response, HCT116 ISRE Luc reporter cells stimulated with Poly I:C. Format: cell-based. The following applies: pretreatment with 0.3 μM for 48 h, FIG. 1B. On the procedure: as §1
HCT116 ISRE Luc cells were plated in 96-well plates at 3×10^3 cells/well. The next day DMEM was replaced with DMEM containing 0.3 μM of ALOS4 or saline as control with/without PEI—transfection reagent, and cells continued to grow for 48 h. Following the 48 h incubation 1 μg/ml of Poly I:C was added for an additional 16 h incubation. After this second incubation the media was removed, 30 μl of Bright-Glo™ Luciferase Assay System (Promega, Cat #E2610) was added. Plate was read with plate reader on Luminescent parameters.

The test system of the next assay is serum cytokines. The assay is described as follows: Serum cytokine array after sub-chronic treatment of submissive mice. Format: in vivo. As to the method: Submissive mice are derivates from “Sabra” strain were maintained under a 12 h light/12 h dark cycle with Purina rodent chow (Envigo, Israel) and water provided ad libitum. The animals were housed five per cage. All procedures with animals were performed after review and approval by the Institutional Animal Care and Use Committee of Ariel University.
Blood samples of submissive mice treated with control, as well as 10 and 30 mg/kg of ALOS4 were collected by terminal bleeding from the heart and centrifuged at 14,000 rpm for 20 min. Serum was removed to a new tube and stored at −80° C. for future use. Mouse XL Cytokine Array Kit (Cat #ARYO28, R&D) was used to detect the cytokines in the serum of submissive mice according to the manufacturer's instructions. Serum from treatment groups (saline, 10 and 30 mg/kg ALOS4) was added to each membrane. Streptavidin-HRP and Chemi Reagent Mix were used to detect the antibodies bound to the membrane. The membranes were then exposed (Image Quant LAS4000 mini; GE Healthcare, Milwaukee, WI, USA) and analyzed using ImageQuant TL software (GE Healthcare).

In assay [3] the test system is crown-like structures (macrophages) in adipose tissue. The assay is described as follows: Crown-like structures in adipose tissue (H&E histology) of submissive mice. The settings on record: sub-chronic 10 and 30 mg/kg, H&E staining, FIG. 2C. Format: in vivo. On the procedure:
The adipose tissue of submissive mice treated with 10 and 30 mg/kg of ALOS4 were excised and fixed with 4% formalin overnight at 4° C., followed by dehydration and paraffin embedding (Cat #BN0763, Barnaor). Serial sections of 5 μm thickness were cut and placed on charged glass slides (LE-14035838925, Leica, Germany) and incubated for 1 h at 60° C. At least three slides from each adipose tissue sample with 300 μm distance between sections were collected for histological staining. Prior to Hematoxylin and Eosin (H&E), all sections were subjected to de-paraffinized and hydrated by decreasing concentrations of ethanol in deionized water.
De-paraffinized and hydrated slides were immersed in Meyer's Hematoxylin solution (Cat #HX68597049, MERCK) for 5 min, washed for 5 min with tap water, and then immersed in Eosin solution (Cat #HX6109259, MERCK) for 2 min, rehydrated and mounted with Entalain.
Macrophages were evaluated by a scoring system using light microscopy. A score of 1 is characterized by the absence of crown like structures in framed field, 10-20 crowns characterize the score of 2, a score of 3—20-30 crown like structures, a score of 4—30-40 crowns and a score of 5—abundant crowns (40-50).

The next assay concerns Raw267.4 cells. Description: Nitric oxide level assay, LPS-induced macrophage differentiation. Format: cell-based, mouse. The settings on record: FIG. 2D. As to the method:
Ability of ALOS4 to affect macrophage differentiation to pro- and anti-inflammatory macrophages was evaluated on mouse monocyte macrophages (Raw267.4) using the nitric oxide level assay. Cells were plated at a density of 1×10^5 cells/ml in 12 well plates for 12 h, followed by treatment with LPS (200 ng/ml) and ALOS4 (0.3 and 30 μM). Nitric oxide production of monocyte differentiation to pro-inflammatory M1 was detected with Griess reaction kit (Cat #G2930, Promega) according to the protocol. The absorbance was read at 540 nm with ELISA plate reader (Tecan infinite M200pro, Switzerland) and nitric oxide concentration was calculated using the Nitrite Standard Reference Curve.

Where [4] appears, read: 10 and 30 mg/kg i.v., every second day within 10 days, FIG. 2A.

With “H-cycl (Cys-Ser-Ser-Ala-Gly-Ser-Leu-Phe-Cys)-OH (H-CSSAGSLFC-OH; disulfide 1-9 (inferred)) [ALOS4]”, the “ability of cells to induce interferon type I signaling in response to Poly I:C (mCherry fluorescence)” value in assay [1] was “suppressed”. In assay [2], the “ability of cells to induce interferon type I signaling in response to Poly I:C (luciferase)” value is on record as “suppressed”. In the assay with serum cytokines (setting [4]), the IL-1α/IL-1F1 in blood entry is given as “did not change” and the “total interleukins in blood as compared to the control group” value was “downregulation”. For the same substance, the “pro-inflammatory markers (Jak-STAT signaling pathway) in serum” value in the assay on serum cytokines (sub-chronic 10 and 30 mg/kg, FIG. 2B) is given as “strong tendency toward down-regulation”. Further, the “frequency of crown-like structures in fat pads” value in assay [3] is “a decrease in frequency was observed”. Moreover, the “nitric oxide (indicator of differentiation to pro-inflammatory macrophages)” value with Raw267.4 cells (LPS-induced, one-way ANOVA p<0.01 and p<0.001) is “significant dose-dependent decrease”. Also, the “differentiation of macrophages to pro-inflammatory M1” value in the assay with Raw267.4 cells (Raw267.4 cells, LPS 200 ng/ml, 0.3 and 30 μM for 24 hours) was “inhibited differentiation of the macrophages to pro-inflammatory M1 in a dose dependent manner”.

The record behind these values is patent US12115207B2, “Treatment of inflammation” (Ariel Scientific Innovations Ltd., priority 2019, dated 2024).
